Measurements as given in publication PMC6269693, “Synthesis and Biological Evaluation of RGD-Conjugated MEK1/2 Kinase Inhibitors for Integrin-Targeted Cancer Therapy” (Molecules, 2013).
Read-outs that look alike come from different tables or passages of the source. Blank lines part the entries; values can stand above or below the molecule they belong to.

Columns and labels:
melanoma A375 cells [1] = test: cells; settings: Homo sapiens, A-375, 72 h
Protocol: (§2) A375, U87, A549 cell line, which were obtained from the National Platform of Experimental Cell Resources for Sci-Tech (Beijing, China), were cultured in Dulbecco’s modified Eagle’s medium (DMEM; Hyclone, Logan, UT, USA), supplemented with 10% heat-inactivated FBS (Hyclone), 100 U/mL penicillin, and 100 μg/mL streptomycin (Wako Pure Chemical Industries, Ltd., Osaka, Japan).
(§3) The cytotoxicity of the RGD-MKE1 conjugates on A375 melanoma cells, ERK signal pathway hyper-activated cell line, was studied in vitro by using an SRB assay. A375 cells (4.5 × 10^3) or U87 cells (5.0 × 10^3) were plated in each well of a 96-well tissue culture plate. Medium supplemented with 10% FBS was added, and cells were allowed to adhere for 24h. […] Then the medium was removed from the 96-well plate, and 10% ice-cold trichloroacetic acid (TCA, 200 μL) was added. The plate was kept at 4 for one hour after which was washed five times with deionized water, then stained with Sulforhodamine B (SRB, 100 μL, Sigma, St. Louis, MO, USA) before air drying. After washing with 1% acetic acid, the bound dye was solubilized with Tris base A (Sigma) and 100 μL of each sample were transferred into a 96-well plate, and then absorbance was read in a 96-well plate reader at 540 nm.Inhibitory ratio (%) = [(ODcontrol − ODtreated)/(ODcontrol)] × 100%.

inactive MEK1 kinase = inactive MEK1 kinase (Homo sapiens, UniProt Q02750); test: HTRF phosphor-MEK1 assay (BRAF-MEK1 assay); assay type: biochemical; settings: for BRAF-MEK1 assay (%) 0.01μM / BRAF-MEK1 assay (%) 0.1 μM / BRAF-MEK1 assay (%) 1 μM: inhibition of phosphorylation of inactive MEK1, mean of three ± SD
Sequence of inactive MEK1 kinase (Q02750 whole entry): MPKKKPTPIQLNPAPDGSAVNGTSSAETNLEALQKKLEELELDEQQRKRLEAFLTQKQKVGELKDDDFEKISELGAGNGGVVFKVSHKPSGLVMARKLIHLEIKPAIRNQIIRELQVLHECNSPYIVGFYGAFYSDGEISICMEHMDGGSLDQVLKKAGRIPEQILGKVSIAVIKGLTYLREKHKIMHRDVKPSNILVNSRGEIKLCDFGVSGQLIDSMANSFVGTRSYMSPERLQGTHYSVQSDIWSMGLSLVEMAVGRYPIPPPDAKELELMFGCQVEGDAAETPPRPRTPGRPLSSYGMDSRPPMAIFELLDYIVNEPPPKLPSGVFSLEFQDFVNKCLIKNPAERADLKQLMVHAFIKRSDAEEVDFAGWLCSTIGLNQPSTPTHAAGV
Protocol: (§1) Phosphorylated MEK1 was determined quantitatively by formation of a complex with specific Eu-labeled anti-phospho p44/42 MAPK (Thr202/Tyr204) antibody and anti-GST-XL665.After 3 h, time-resolved fluorescence was read using a FlexStation 3 plate reader (Molecular Devices, Sunnyvale, CA, USA). […] The curve-fitting software GraphPad Prism 4.0 was used to generate the curves and determine the IC50 values. […] The calculation method of HTRF ratio was the same with that in HTRF phosphor-MEK1 assay.

active MEK1 kinase = target: T1, active MEK1 kinase (Homo sapiens, UniProt Q02750); test: HTRF phosphor-ERK2 assay (MEK1-ERK2 assay); assay type: biochemical; settings: inhibition of active MEK1 phosphorylating inactive ERK2, mean of three ± SD
T1 construct: purchased Carna Biosciences
T1 sequence (Q02750 whole entry): as above
Protocol: as §1

melanoma A375 cells [2] = settings: for IC50: 72 h
Protocol: as §2, §3

U87 glioblastoma cells = test: In vitro anti-proliferation assay by the SRB method, U87; assay type: cell-based, human
Protocol: as §2, §3

[3] = system: p-ERK1/2 in melanoma A375 cells; test: Western blotting of p-ERK1/2 in A375 cell lysates; assay type: cell-based; settings: 10 μM, 2 h
Protocol: To evaluate the expression levels of ERK singal pathway after treated with conjugates, A375 cells were treated with compounds for 2 h respectively. Confluent cells were washed with ice-cold phosphate-buffered saline (PBS), and treated with lysis buffer (Beyotime Institute of Biotechnology, Suzhou, China) on ice for 1 h. Then the lysates were collected by scraping from the plates and then centrifuged at 13,000 rpm at 4 °C for 15 min. The protein concentration was quantitated using a Pierce BCA Protein Assay Kit (Thermo Scientific, Rockford, IL, USA) ona FlexStation 3 Benchtop Multi-Mode Microplate Reader at 562 nm (Molecular Devices). An equal amount of proteins (10 μg per lane) for each sample were analyzed by SDS-PAGE on a 10% gel. After electro-blotting to PVDF membrane (Millipore, Billerica, MA, USA) at 400 mA for 1 h, membranes were blocked with 5% nonfat dry milk for 1 h at room temperature. Membrane were washed with 0.1% PBST three times and then incubated with primary antibodies overnight at 4 °C. Antibodies against pERK and ERK (Cell Signaling Technology, Inc., Danvers, MA, USA) were utilized as the primary antibodies. […] Finally, protein products were analyzedby Image Lab^TM software(ChemiDoc^TM XRS System, BIO-RAD, Hercules, CA, USA) with. […]

Molecule: NCCOCCONC(=O)c1ccc(F)c(F)c1Nc1ccc(I)cc1F [Compound 7e, N-(2-(2-aminoethoxy)ethoxy)-3,4-difluoro-2-((2-fluoro-4-iodophenyl)amino)benzamide]
melting point: 197.5 to 198.5 °C

Molecule: O=C(O)CCC(=O)NCCCONC(=O)c1ccc(F)c(F)c1Nc1ccc(I)cc1F [Compound 8b, 4-((3-((3,4-Difluoro-2-((2-fluoro-4-iodophenyl)amino)benzamido)oxy)propyl)amino)-4-oxobutanoic acid]
IC50 (melanoma A375 cells [1]; read-out: A375 cell IC50): 14200 nM
BRAF-MEK1 assay (%) 0.01μM (inactive MEK1 kinase): 12.5 ± 3.2%
BRAF-MEK1 assay (%) 0.1 μM (inactive MEK1 kinase): 39.6 ± 9.3%
BRAF-MEK1 assay (%) 1 μM (inactive MEK1 kinase): 57.5 ± 1.7%
MEK1-ERK2 assay (%) 1 μM (active MEK1 kinase): 29.1 ± 12.0%
MEK1-ERK2 assay (%) 10 μM (active MEK1 kinase): 83.4 ± 1.2%

Molecule: N=C(N)NCCC[C@@H]1NC(=O)[C@H](CCCCNC(=O)CCC(=O)NCCCONC(=O)c2ccc(F)c(F)c2Nc2ccc(I)cc2F)NC(=O)[C@@H](Cc2ccc(O)cc2)NC(=O)[C@H](CC(=O)O)NC(=O)CNC1=O [Compound 9b]
U87 cell-growth inhibition (U87 glioblastoma cells; 10 µM, SRB method): 21.3%
IC50 (inactive MEK1 kinase): 47.9 nM
BRAF-MEK1 assay (%) 0.01μM (inactive MEK1 kinase): 6.7 ± 8.5%
BRAF-MEK1 assay (%) 0.1 μM (inactive MEK1 kinase): 58.5 ± 8.5%
BRAF-MEK1 assay (%) 1 μM (inactive MEK1 kinase): 77.6 ± 7.5%
IC50 (melanoma A375 cells [2]): 2100 nM
inhibition of the phosphorylation of ERK1/2 protein [3]: up to 90%
MEK1-ERK2 assay (%) 1 μM (active MEK1 kinase): 69.9 ± 3.2%
MEK1-ERK2 assay (%) 10 μM (active MEK1 kinase): 93.5 ± 2.2%

Molecule: O=C(O)CCC(=O)OC[C@H](O)CONC(=O)c1ccc(F)c(F)c1Nc1ccc(I)cc1F [Compound 11, (S)-4-(3-((3,4-difluoro-2-((2-fluoro-4-iodophenyl)amino)benzamido)oxy)-2-hydroxypropoxy)-4-oxobutanoic Acid]
IC50 (melanoma A375 cells [1]; read-out: A375 proliferation assay IC50): 230 nM
fold loss of antitumor efficacy compared to 13 (melanoma A375 cells [2]; A375 IC50 vs 13): ~10 fold

Molecule: O=C(NOC[C@H](O)CO)c1ccc(F)c(F)c1Nc1ccc(I)cc1F [PD0325901, reference compound]
inhibition at 1 µM (U87 glioblastoma cells; Homo sapiens, U-87 MG, high concentrations (>1 µM), concentration-independent, 72 h, read-out: inhibitory activity in U87 cells): ~50%
IC50 (melanoma A375 cells [1]; read-out: A375 cell IC50): 0.45 nM

Molecule: c(RGDyK) [cRGD peptides, reference compound]
inhibition of the phosphorylation of ERK1/2 protein [3]: no inhibitory activity

The next lines start with the values.

melting point: 120.9 to 121.9 °C
Molecule: O=C(O)CCC(=O)NCCCCONC(=O)c1ccc(F)c(F)c1Nc1ccc(I)cc1F [Compound 8c, 4-((4-((3,4-Difluoro-2-((2-fluoro-4-iodophenyl)amino)benzamido)oxy)butyl)amino)-4-oxobutanoic acid]

BRAF-MEK1 assay (%) 0.01μM (inactive MEK1 kinase): 0.3 ± 0.0%
BRAF-MEK1 assay (%) 0.1 μM (inactive MEK1 kinase): 30.0 ± 4.7%
BRAF-MEK1 assay (%) 1 μM (inactive MEK1 kinase): 74.2 ± 7.2%
IC50 (melanoma A375 cells [2]): 4400 nM
MEK1-ERK2 assay (%) 1 μM (active MEK1 kinase): 66.5 ± 7.7%
MEK1-ERK2 assay (%) 10 μM (active MEK1 kinase): 88.4 ± 1.4%
Molecule: N=C(N)NCCC[C@@H]1NC(=O)[C@H](CCCCNC(=O)CCC(=O)NCCONC(=O)c2ccc(F)c(F)c2Nc2ccc(I)cc2F)NC(=O)[C@@H](Cc2ccc(O)cc2)NC(=O)[C@H](CC(=O)O)NC(=O)CNC1=O [Compound 9a]
